{"source": "PubChem BioAssay AID1902", "about": "(Broad Institute, 2009)", "note": "Activity calls are given as the source filed them.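 Rule for the calls: active = EC50 no more than a set limit of log units above the highest dose; inactive = the rest.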"}
{"biological_target": "S. pyogenes SKKanGAS, kanamycin survival, BacTiterGlo, 6 h", "assay": "S. pyogenes SKKanGAS kanamycin growth inhibitors – SKKanGAS strain, luminescence, dose confirmation, streptokinase promoter inhibitor project, dose response (AID 1902);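 note: lower survival reflects blocked streptokinase promoter driving kanamycin resistance gene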"}
{"molecule": "CCOC(=O)c1c(S(=O)(=O)N2CCCCCC2)c(C)n(C)c1C", "EC50": "> 15000 nM (inactive)"}
{"molecule": "Cc1cc(C)c2c(c1)NC(c1cc3c(cc1Br)OCO3)C1CC=CC21", "note": "(stereo not drawn)", "EC50": "8130 nM"}
{"molecule": "Cc1cc(NC(=O)c2ccc3c(c2)OCCO3)ccc1NC(=O)c1cc2ccccc2o1", "EC50": "10100 nM"}
{"molecule": "Cc1cccc(NC(=O)NCc2ccc3c(c2)OCO3)c1", "EC50": "> 15000 nM (inactive)"}
{"molecule": "O=C(NCc1ccc2c(c1)OCO2)C(=O)NCC1OCCN1S(=O)(=O)c1ccc(Br)cc1", "note": "(stereo not drawn)", "EC50": "> 15000 nM (inactive)"}
{"molecule": "Cc1ccc(CN2C(=O)c3ccccc3NC2c2cc(Br)ccc2O)cc1", "note": "(stereo not drawn)", "EC50": "4310 nM"}
{"molecule": "COc1cccc(COC(=O)c2sc3nc4n(c(=O)c3c2C)CCC4)c1OC", "EC50": "4760 nM"}
{"molecule": "CCCCCCn1c(=O)c(C(=O)Nc2ncccc2C)c(O)c2ccccc21", "EC50": "507 nM"}
{"molecule": "CC(C)C(=O)NC(c1cccs1)c1cc([N+](=O)[O-])c2cccnc2c1O", "note": "(stereo not drawn)", "EC50": "1450 nM"}
{"molecule": "O=C(Nc1nnc(-c2ccncc2)o1)c1ccc(Br)s1", "EC50": "3270 nM"}
{"molecule": "CCN(CC)c1nc(C(F)(F)F)nc2c1nnn2Cc1ccccc1", "EC50": "3620 nM"}
{"molecule": "CCOC(=O)C1=C(c2ccc(OC)cc2)C(=O)c2ccccc2C1=O", "EC50": "1780 nM"}
{"molecule": "Nc1ccc(-c2cn3cccnc3n2)cc1", "EC50": "> 15000 nM (inactive)"}
{"molecule": "COC(=O)[C@H]1[C@H](CCc2ccccc2)NC(=O)N(Cc2ccccc2)[C@@H]1C", "EC50": "> 15000 nM (inactive)"}
{"molecule": "CN1C(=O)/C(=C/c2ccc(C(F)(F)F)cc2)Sc2ccc(C(=O)N3CCN(c4ccccn4)CC3)cc21", "EC50": "1570 nM"}
{"molecule": "Cc1ccc(Nc2c(-c3ccccn3)nc3cccc(C)n23)cc1", "EC50": "322 nM"}
{"molecule": "O=C(NC(NC(=S)Nc1c(Cl)cc(Cl)cc1Cl)C(Cl)(Cl)Cl)OCc1ccccc1", "note": "(stereo not drawn)", "EC50": "978 nM"}
{"molecule": "Cc1cccc(C(=O)NCC(=O)N2CCOCC2)c1", "EC50": "> 15000 nM (inactive)"}
{"molecule": "O=C(CC1CC2CCC1C2)Nc1nc(-c2ccccn2)cs1", "note": "(stereo not drawn)", "EC50": "2400 nM"}
{"molecule": "COc1ccc(Br)cc1/C=C/C(=O)NC(=S)Nc1ccc(Cl)c(C(=O)O)c1", "EC50": "10500 nM"}
{"molecule": "Clc1ccc2c(N/N=C/c3cccc(Br)c3)ccnc2c1", "EC50": "2860 nM"}
{"molecule": "O=C(NC(=S)NNC(=O)c1ccc(Cl)cc1Cl)c1cccnc1", "EC50": "3070 nM"}
{"molecule": "Cc1oc(-c2cc(Cl)cc(Cl)c2)cc1C(=O)NCCc1ccccc1", "EC50": "11700 nM"}
{"molecule": "Oc1c(Br)cc(Br)cc1/C=N/Nc1ccc(Cl)nn1", "EC50": "481 nM"}
{"molecule": "COc1ccc(NC(=O)c2cc(-c3cc(C)cc(C)c3O)n[nH]2)cc1Cl", "EC50": "2250 nM"}
{"molecule": "CCC1=NN(C(=O)c2ccccc2O)C(O)(c2ccccc2)C1", "note": "(stereo not drawn)", "EC50": "1940 nM"}
{"molecule": "COC(=O)c1ccc(C(=O)OC)c(NC(=O)CN(C)Cc2cccc(Cl)c2Cl)c1", "EC50": "7700 nM"}
{"molecule": "CCCCCn1c(CN2CCN(c3cc(Cl)ccc3C)CC2)nc2c1c(=O)[nH]c(=O)n2C", "EC50": "2500 nM"}
{"molecule": "O=C(CN1CCc2ccccc2C1)Nc1ccccc1N1CCCCCC1", "EC50": "2420 nM"}
{"molecule": "O=C(NC(NC(=S)Nc1ccc(Cl)cc1Cl)C(Cl)(Cl)Cl)c1cccc([N+](=O)[O-])c1", "note": "(stereo not drawn)", "EC50": "990 nM"}
{"molecule": "Cc1ccc(-c2nn(-c3ccccc3)cc2/C=N/n2c(-c3cccs3)n[nH]c2=S)cc1", "EC50": "1950 nM"}
{"molecule": "CC1CCN(c2nc(CN3CCCCC3)nc3scc(-c4ccccc4)c23)CC1", "EC50": "3020 nM"}
{"molecule": "O=C1/C(=N\\S(=O)(=O)c2cccs2)C([n+]2cccc(Cc3ccccc3)c2)=C([O-])c2ccccc21", "EC50": "1680 nM"}
{"molecule": "N=C1S/C(=C\\c2ccco2)C(=O)N1c1nccs1", "EC50": "2130 nM"}
{"molecule": "Cc1ccc(-c2csc3ncnc(NS(=O)(=O)c4ccc(Cl)cc4)c23)cc1", "EC50": "6820 nM"}
{"molecule": "COc1ccc(-c2c/c(=N\\c3nc(-c4ccccc4)c(C)s3)c3ccccc3o2)cc1O", "EC50": "11000 nM"}
{"molecule": "CCc1c(C2(O)CCCCC2)[nH]c2c(C(=O)OC)cc(Cl)cc12", "EC50": "4120 nM"}
{"molecule": "O=C(Nc1nc(-c2ccccc2)c(-c2ccccc2)o1)c1ccc(F)cc1", "EC50": "561 nM"}
{"molecule": "COc1cc2c(C#N)c(N3CCN(c4ccccc4OC)CC3)nc(N)c2c(N)n1", "EC50": "4660 nM"}
{"molecule": "CCc1ccc(Nc2n[n+](-c3ccccc3)c(-c3c(Cl)cccc3Cl)s2)cc1", "EC50": "6220 nM"}
{"molecule": "O=C(N/N=C/c1cc([N+](=O)[O-])ccc1O)C(O)(c1ccccc1)c1ccccc1", "EC50": "6170 nM"}
{"molecule": "CC(C)c1ccc(-n2cccc2/C=C2/C(=N)N3C=CSC3=NC2=O)cc1", "EC50": "3280 nM"}
{"molecule": "CC(Nc1nc(-c2ccccc2O)nc2ccccc12)c1ccccc1", "note": "(stereo not drawn)", "EC50": "8790 nM"}
{"molecule": "O=C(CSc1nc2nc(-c3cccs3)cc(C(F)(F)F)c2c(=O)[nH]1)Nc1ccc(F)c(F)c1", "EC50": "1160 nM"}
{"molecule": "C/C(=N\\N=C(/N)SC1CC(=O)N(c2ccc(Cl)c(Cl)c2)C1=O)c1cccs1", "note": "(stereo not drawn)", "EC50": "2130 nM"}
{"molecule": "Cc1nn(Cc2ccc(Cl)cc2Cl)c(C)c1NC(=O)NC12CC3CC(CC(C3)C1)C2", "EC50": "14200 nM"}
{"molecule": "CC(C)C(NC(=O)C(c1ccccc1)c1ccccc1)c1nc2ccccc2[nH]1", "note": "(stereo not drawn)", "EC50": "2960 nM"}
{"molecule": "O=C(Nc1nnc(-c2ccc(Br)cc2)o1)c1cccc(N2C(=O)CCC2=O)c1", "EC50": "1350 nM"}
{"molecule": "N=c1c2c(-c3ccccc3)c(-c3ccccc3)oc2ncn1Cc1ccco1", "EC50": "3270 nM"}
{"molecule": "Oc1c(N=Nc2ccccn2)ccc2ccccc12", "EC50": "2580 nM"}
{"molecule": "Cc1cc([N+](=O)[O-])cc(/C=N\\NC(=O)C2COc3ccccc3O2)c1O", "note": "(stereo not drawn)", "EC50": "1520 nM"}
{"molecule": "COCCn1c(SCC(=O)Nc2ccc(F)cc2)nc2c([nH]c3ccccc32)c1=O", "EC50": "> 15000 nM (inactive)"}
{"molecule": "COc1ccc(C(=O)c2ccc(N3CCN(C4CC(=O)NC4=O)CC3)cc2)cc1F", "note": "(stereo not drawn)", "EC50": "2760 nM"}
